Measured values published in patent publication US20210106703A1, “RADIOIMMUNOCONJUGATES IN COMBINATION WITH OTHER DRUGS AS TREATMENT AGAINST NHL” (Nordic Nanovector ASA, priority 2017, published 2021).
“Also recorded” adds a separate entry of the source.

T1: CD37 receptor (Homo sapiens, UniProt P11049)
T1 sequence (P11049 1-281): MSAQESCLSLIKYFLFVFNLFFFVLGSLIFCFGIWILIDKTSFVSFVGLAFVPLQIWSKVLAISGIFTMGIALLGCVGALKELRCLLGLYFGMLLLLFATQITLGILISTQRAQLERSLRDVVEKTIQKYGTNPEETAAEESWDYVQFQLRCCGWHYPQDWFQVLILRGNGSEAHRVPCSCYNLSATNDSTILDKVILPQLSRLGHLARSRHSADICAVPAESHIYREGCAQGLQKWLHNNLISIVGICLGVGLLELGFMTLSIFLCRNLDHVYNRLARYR

B1: lilotomab: murine anti-CD37 IgG1 mAb (antibody, chains of the INN, looked up, V domains shown)
VH: EIQLQQSGPELVKPGASVKVSCKASGYSFTDYNMYWVKQSHGKSLEWIGYIDPYNGDTTYNQKFKGKATLTVDKSSSTAFIHLNSLTSEDSAVYYCARSPYGHYAMDYWGQGTSVTVSS
VL: DIVMTQSHKLLSTSVGDRVSITCKASQDVSTAVDWYQQKPGQSPKLLINWASTRHTGVPDRFTGSGSGTDYTLTISSMQAEDLALYYCRQHYSTPFTFGSGTKLEIK

What was measured:
OCI-Ly8 cells = assay: Cell cycle analysis (PI, Muse flow cytometer); format: cell-based, human; conditions: OCI-Ly8, 1 μM inhibitor + ^177Lu-lilotomab, versus ^177Lu-lilotomab alone
Method: Cells were harvested at 0 […], and fixed in 70% ethanol at -20° C. for at least 3 h. After staining with the Muse® Cell Cycle Assay Kit (Merck Millipore, Molsheim, France) using propidium iodide in the dark at room temperature for 30 min, cell cycle distribution was analyzed using a Muse® flow cytometer. The percentage of cells in the G0/G1, S and G2/M was calculated (mean of three experiments in triplicate) and the effect of WEE-1 and MYT-1 kinase inhibitors on the cell cycle was assessed.

Ramos cells [1] = assay: Proliferation study with Wee-1/Myt-1 inhibitors and ^177Lu-lilotomab; format: cell-based, human; conditions: inhibitor 1 μM + ^177Lu-lilotomab 6 MBq/mL (RIT) for 18 h, 6 days after start
Method: (§1) Cells were treated for 18 h with 1 μM of the selective Wee-1 kinase inhibitor MK-1775 (Selleckchem, Houston, USA) or of the dual Wee-1/Myt-1 inhibitor PD-166285 (EMD Merck Millipore/Calbiochem, Molsheim, France) alone or in combination with 6 MBq/mL, 2 MBq/mL and 0.5 MB/mL of ^177Lu-lilotomab for Ramos, Rec-1 and DOHH2 cells respectively. At different times after start of incubation, proteins were extracted to measure the CDK1 phosphorylation levels, in parallel, proliferation was determined and at 18 h and 24 h after start of incubation, the percentage of cells in G2/M was assessed (experiments were performed three time except the cell cycle analysis).
(§2) The activity used for the treatment with ^177Lu-lilotomab was chosen to decrease the proliferation to about 50% for the three cell lines compared with non-treated cells.
(§3) Inhibition of G2/M cell cycle arrest radiosensitises radioresistant Ramos model. The Bliss independence mathematical model was next used to investigate the role of MK-1775 or PD-166285 on the response to ^177Lu-lilotomab. A theoretical therapeutic efficacy was calculated for the two combinations (MK-1775 or PD-166285) in the three cell lines. And the comparison between the experimental and the theoretical curves was done.
(§4) Theoretical efficacyRIT+inhib=EfficacyRIT+Efficacyinhib−(EfficacyRIT×Efficacyinhib)

DOHH2 cells [2] = assay: as above; format: cell-based, human; conditions: DOHH2, inhibitor alone 1 μM for 18 h, 6 days after start
Method: as §1, §2, §3, §4

Rec-1 cells [3] = assay: Cell cycle analysis (PI, Muse flow cytometer); format: cell-based, human; conditions: Rec-1, 1 μM inhibitor + ^177Lu-lilotomab, versus ^177Lu-lilotomab alone or untreated
Method: (§5) Cells were harvested at day 0, 2 h, 18 h, 1 d, 2 d, 3 d, of RIT then fixed in 70% ethanol at −20° C. for 3 hours and stained with Cell Cycle kit (with PI) reagent from Merck Millipore in the dark for 30 min at room temperature before analysis using a Muse® flow cytometer. The percentage of cells in G0/G1, S and G2/M phases was then calculated (mean of three experiments in triplicate).
(§6) At different times after start of incubation, proteins were extracted to measure the CDK1 phosphorylation levels, in parallel, proliferation was determined and at 18 h and 24 h after start of incubation, the percentage of cells in G2/M was assessed (experiments were performed three time except the cell cycle analysis).
(§7) Cells were harvested at 0 h, 2 h, 18 h, 1 d, 2 d, 3 d, and fixed in 70% ethanol at −20° C. for at least 3 h. After staining with the Muse® Cell Cycle Assay Kit (Merck Millipore, Molsheim, France) using propidium iodide in the dark at room temperature for 30 min, cell cycle distribution was analyzed using a Muse® flow cytometer. The percentage of cells in the G0/G1, S and G2/M was calculated (mean of three experiments in triplicate) and the effect of WEE-1 and MYT-1 kinase inhibitors on the cell cycle was assessed.

Ramos cells [4] = assay: Cell cycle analysis (PI, Muse flow cytometer); format: cell-based, human; conditions: 1 μM inhibitor + ^177Lu-lilotomab, versus ^177Lu-lilotomab alone or untreated
Method: as §5, §6, §7

DOHH2 cells [5] = assay: Cell cycle analysis (PI, Muse flow cytometer); format: cell-based, human; conditions: DOHH2, 1 μM inhibitor + ^177Lu-lilotomab, versus ^177Lu-lilotomab alone or untreated
Method: as §5, §6, §7

Rec-1 cells [6] = assay: Apoptosis induction (Annexin V/7-AAD, Muse flow cytometer); format: cell-based, human; conditions: Rec-1, 18 h exposure to unlabelled mAb, at peak time
Method: (§8) Cells were harvested at 0, 2 h, 18 h, 1 d, 2 d, 3 d of RIT. At each time point, apoptosis was detected with […] from Merck Millipore (Annexin V Kit with 7-AAD) in the dark for 30 min at room temperature before analysis using Muse® flow cytometer

Ramos cells [7] = assay: as above; format: cell-based, human; conditions: 18 h exposure to unlabelled mAb, at peak time
Method: as §8

DOHH2 cells [8] = assay: as above; format: cell-based, human; conditions: DOHH2, 18 h exposure to unlabelled mAb, plateau at 18 h
Method: as §8

OCI-Ly8 tumor xenografts = assay: Treatment of mice with tumor xenografts; conditions: single agent
CD37 receptor = molecular target: T1, CD37 receptor; conditions: cited from earlier work

| Molecule | Proportion of cells in G2/M, inhibitor combined with ^177Lu-lilotomab (OCI-Ly8 cells) | Proliferation (treated/untreated cells) (Ramos cells [1]) | Proliferation (treated/untreated cells) (DOHH2 cells [2]) | Proportion of cells in G2/M, inhibitor combined with ^177Lu-lilotomab (Rec-1 cells [3]) | Proportion of cells in G2/M, inhibitor combined with ^177Lu-lilotomab (Ramos cells [4]) | Proportion of cells in G2/M, inhibitor combined with ^177Lu-lilotomab (DOHH2 cells [5]) | Apoptosis level (Rec-1 cells [6]) | Apoptosis level (Ramos cells [7]) | Apoptosis level (DOHH2 cells [8]) | Therapeutic efficacy compared with control (OCI-Ly8 tumor xenografts) | Equilibrium dissociation constant (CD37 receptor) |
| --- | --- | --- | --- | --- | --- | --- | --- | --- | --- | --- | --- |
| CCN(CC)CCOc1ccc(Nc2ncc3cc(-c4c(Cl)cccc4Cl)c(=O)n(C)c3n2)cc1 [PD-166285] | reduction of the fraction of G2/M cells | ~10% | 18% | reduction of the fraction of G2/M cells | reduction of the fraction of G2/M cells | higher than that induced by the combination with the MK-1775; also recorded: reduction of the fraction of G2/M cells |  |  |  |  |  |
| B1 |  |  |  |  |  |  | No apoptosis was induced | No apoptosis was induced | No apoptosis was induced | no therapeutic efficacy | nanomolar |
